From ChEMBL document CHEMBL1201862, “PubChem BioAssay data set” (2004)
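Tested at 5 concentrations; 48 h exposure; 96-well plates; endpoints linearly interpolated, else capped at highest concentration. The concentration for 50% growth inhibition is given as GI50.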 Calls of active or inactive are those of the source. Rule as the data show it: active = GI50 up to about 1.1 µM and inactive = higher.

Experiments:
Experiment in all cases: NCI tumour cell line growth inhibition, 48 h
[1] = test system: M14
[2] = test system: COLO 205
[3] = test system: DMS-273
[4] = test system: OVCAR-3
[5] = test system: SR
[6] = test system: U-251
[7] = test system: HL-60
[8] = test system: RPMI-8226
[9] = test system: HOP-62
[10] = test system: OVCAR-8
[11] = test system: LOX IMVI
[12] = test system: RXF 393
[13] = test system: SW-620
[14] = test system: KM12
[15] = test system: HT-29
[16] = test system: OVCAR-5
[17] = test system: CAKI-1

Measured: GI50

O=C1C=C/C(=N\c2ccc3c(c2)C(Br)c2ccccc2-3)O1 (stereo unspecified)
inactive: [1] > 100 µM | [2] > 100 µM | [3] > 10 µM | [4] > 100 µM | [5] 20.2 µM | [6] > 100 µM | [7] 10.2 µM | [8] 68.2 µM | [9] > 100 µM | [10] 72.6 µM | [11] 45.6 µM | [12] > 100 µM | [13] 27.6 µM

CN(C)CC1CCCC(CN(C)C)C1OC(=O)c1ccccc1 (stereo unspecified)
inactive: [1] > 100 µM | [2] > 100 µM | [3] > 100 µM | [4] > 100 µM | [5] > 100 µM | [6] > 100 µM | [14] > 100 µM | [15] > 100 µM | [7] > 100 µM | [8] > 100 µM | [9] > 100 µM | [10] > 100 µM | [11] > 100 µM | [12] > 100 µM | [16] > 100 µM | [17] > 100 µM | [13] > 100 µM

COC(=O)N/N=c1\cc(C(=O)Nc2ccc(C)c(C)c2)oc2cc(O)ccc12
inactive: [1] > 100 µM | [2] > 100 µM | [3] > 100 µM | [4] > 100 µM | [5] > 100 µM | [6] > 100 µM | [14] > 100 µM | [15] > 100 µM | [7] > 100 µM | [9] > 100 µM | [10] > 100 µM | [11] > 100 µM | [12] > 100 µM | [16] > 100 µM | [17] > 100 µM | [13] > 100 µM

C/C(CC(=O)Nc1cccc(Cl)c1C)=N\N=C(N)N
inactive: [1] > 100 µM | [2] > 100 µM | [3] 97.1 µM | [4] > 100 µM | [6] > 100 µM | [14] > 100 µM | [15] > 100 µM | [7] > 100 µM | [8] > 100 µM | [9] > 100 µM | [10] > 100 µM | [11] > 100 µM | [12] > 100 µM | [16] > 100 µM | [17] > 100 µM

CC12CC3CC(C)(C1)CC(N=[N+]=[N-])(C3)C2
inactive: [1] > 100 µM | [2] > 100 µM | [3] > 100 µM | [4] > 100 µM | [5] > 100 µM | [6] > 100 µM | [14] > 100 µM | [15] > 100 µM | [8] > 100 µM | [9] > 100 µM | [10] > 100 µM | [11] > 100 µM | [16] > 100 µM | [17] > 100 µM | [13] > 100 µM

C[N+](C)(C)CC1CCCC(C[N+](C)(C)C)C1O (stereo unspecified)
inactive: [1] > 100 µM | [2] > 100 µM | [3] > 100 µM | [4] > 100 µM | [5] > 100 µM | [6] > 100 µM | [14] > 100 µM | [15] > 100 µM | [7] > 100 µM | [8] > 100 µM | [9] > 100 µM | [10] > 100 µM | [11] > 100 µM | [12] > 100 µM | [16] > 100 µM | [17] > 100 µM | [13] > 100 µM

COc1cc2c(cc1OC)C1(c3ccc(Cl)cc3)ON=C(c3ccccc3)N1CS2 (stereo unspecified)
inactive: [1] 73.8 µM | [2] > 100 µM | [3] > 100 µM | [4] > 100 µM | [5] 7.05 µM | [6] > 100 µM | [14] > 100 µM | [15] 15.5 µM | [7] 24.2 µM | [8] 48.1 µM | [9] > 100 µM | [11] 30.1 µM | [12] 21.2 µM | [16] > 100 µM | [17] > 100 µM | [13] > 100 µM

ON/N=C/c1cc2c(cc1Br)OCO2
inactive: [2] > 386 µM | [3] > 386 µM | [4] 295 µM | [5] > 386 µM | [6] 329 µM | [14] > 386 µM | [15] > 386 µM | [7] > 386 µM | [8] > 386 µM | [9] > 386 µM | [10] > 386 µM | [11] > 386 µM | [12] 114 µM | [16] 164 µM | [17] > 386 µM | [13] > 386 µM

O=[N+]([O-])c1cc(/C=N\NS(=O)(=O)c2ccc(Cl)cc2)c(O)c([N+](=O)[O-])c1
inactive: [1] 32.4 µM | [2] 16.1 µM | [3] 26.5 µM | [4] 24.4 µM | [5] 21 µM | [6] 24 µM | [14] 27.5 µM | [15] 24.9 µM | [7] 26.7 µM | [8] 19 µM | [9] 47.3 µM | [10] 23 µM | [11] 37.8 µM | [12] 32.8 µM | [16] > 100 µM | [17] 30.5 µM | [13] 34.6 µM

CN1CCOC(C(NC(=O)c2ccccc2)c2ccccc2)C1=O (stereo unspecified)
inactive: [1] > 100 µM | [2] > 100 µM | [3] > 100 µM | [4] > 100 µM | [5] > 100 µM | [6] > 100 µM | [14] > 100 µM | [15] > 100 µM | [7] > 100 µM | [8] > 100 µM | [9] > 100 µM | [10] > 100 µM | [11] > 100 µM | [12] > 100 µM | [16] > 100 µM | [17] > 100 µM | [13] > 100 µM

CN1C(c2ccccc2)CC(=NO)CC1c1ccccc1 (stereo unspecified)
inactive: [1] 43 µM | [2] 20.2 µM | [3] 28 µM | [4] 39.9 µM | [5] 26.9 µM | [6] 67.6 µM | [14] 31.6 µM | [15] 35.9 µM | [7] 16.4 µM | [8] 24 µM | [9] > 100 µM | [10] 47.4 µM | [11] 19.7 µM | [12] 62.5 µM | [16] 67.3 µM | [17] 48.2 µM | [13] 48.8 µM

O=C(C[n+]1ccccc1)NNC(=O)/C(=C/c1ccc2c(c1)OCO2)NC(=O)c1ccccc1
inactive: [1] 48 µM | [2] > 46.1 µM | [3] 28.3 µM | [4] 29.9 µM | [5] 18.2 µM | [6] 28.2 µM | [14] 35.2 µM | [15] > 71.8 µM | [7] 25.2 µM | [8] 24.5 µM | [9] 44.4 µM | [10] 30 µM | [11] 20.6 µM | [12] 41.7 µM | [16] > 100 µM | [17] > 100 µM | [13] 34.8 µM

C#CC1(O)CCC2[C@@H]3CCc4cc(Oc5nc(F)nc(-c6c7ccccc7c(SCC)n6CCC)n5)ccc4C3CC[C@@]21C (stereo partly specified)
inactive: [1] 40.5 µM | [2] > 100 µM | [3] > 100 µM | [4] > 100 µM | [5] 34.7 µM | [6] 54.6 µM | [14] > 100 µM | [15] > 100 µM | [7] > 100 µM | [8] 57.3 µM | [9] > 100 µM | [10] > 100 µM | [11] 76 µM | [12] 21.6 µM | [16] > 100 µM | [13] > 100 µM

COc1ccccc1/C=C1\C(=O)N(C(=O)c2ccc(NC(C)=O)cc2)N=C1C
inactive: [2] > 100 µM | [3] > 100 µM | [4] > 100 µM | [5] > 100 µM | [6] > 100 µM | [14] > 100 µM | [15] > 100 µM | [7] > 100 µM | [8] > 100 µM | [9] > 100 µM | [10] > 100 µM | [11] > 100 µM | [16] > 100 µM | [17] > 100 µM | [13] > 100 µM

N#CC1(C#N)C=CC(=C2OCC3CCCN23)C=C1 (stereo unspecified)
inactive: [1] > 100 µM | [2] > 100 µM | [3] > 100 µM | [6] > 100 µM | [14] > 100 µM | [15] > 100 µM | [7] 87.5 µM | [8] > 100 µM | [9] > 100 µM | [10] > 100 µM | [11] > 100 µM | [12] > 100 µM | [16] > 100 µM | [17] > 100 µM | [13] > 100 µM

NCP(=O)(O)OCC(=O)O
inactive: [1] > 100 µM | [2] > 100 µM | [3] > 100 µM | [4] > 100 µM | [5] > 100 µM | [6] > 100 µM | [14] > 100 µM | [15] > 100 µM | [7] > 100 µM | [9] > 100 µM | [10] > 100 µM | [11] > 100 µM | [12] > 100 µM | [16] > 100 µM | [17] > 100 µM | [13] > 100 µM

C[C@@]1(CBr)C[C@@](C)(/C=C/Cl)[C@@H](Cl)C[C@H]1Cl
inactive: [1] 15.5 µM | [2] 13.5 µM | [3] 10.8 µM | [4] 10.8 µM | [5] 1.9 µM | [6] 14.2 µM | [14] 7.83 µM | [15] 9.04 µM | [7] 3.06 µM | [9] 14.2 µM | [10] 13.9 µM | [11] 11.5 µM | [12] 13.8 µM | [16] 13.5 µM | [17] 17.3 µM | [13] 13.9 µM
